According to publication PMC5397323 (Biopharmaceutics & drug disposition, 2017):

Key:
[1] = biological target: T1, OATP2B1 (Homo sapiens, UniProt O94956); conditions: OATP2B1-overexpressing Xenopus laevis oocytes; cited from earlier work
T1 sequence (O94956 1-709): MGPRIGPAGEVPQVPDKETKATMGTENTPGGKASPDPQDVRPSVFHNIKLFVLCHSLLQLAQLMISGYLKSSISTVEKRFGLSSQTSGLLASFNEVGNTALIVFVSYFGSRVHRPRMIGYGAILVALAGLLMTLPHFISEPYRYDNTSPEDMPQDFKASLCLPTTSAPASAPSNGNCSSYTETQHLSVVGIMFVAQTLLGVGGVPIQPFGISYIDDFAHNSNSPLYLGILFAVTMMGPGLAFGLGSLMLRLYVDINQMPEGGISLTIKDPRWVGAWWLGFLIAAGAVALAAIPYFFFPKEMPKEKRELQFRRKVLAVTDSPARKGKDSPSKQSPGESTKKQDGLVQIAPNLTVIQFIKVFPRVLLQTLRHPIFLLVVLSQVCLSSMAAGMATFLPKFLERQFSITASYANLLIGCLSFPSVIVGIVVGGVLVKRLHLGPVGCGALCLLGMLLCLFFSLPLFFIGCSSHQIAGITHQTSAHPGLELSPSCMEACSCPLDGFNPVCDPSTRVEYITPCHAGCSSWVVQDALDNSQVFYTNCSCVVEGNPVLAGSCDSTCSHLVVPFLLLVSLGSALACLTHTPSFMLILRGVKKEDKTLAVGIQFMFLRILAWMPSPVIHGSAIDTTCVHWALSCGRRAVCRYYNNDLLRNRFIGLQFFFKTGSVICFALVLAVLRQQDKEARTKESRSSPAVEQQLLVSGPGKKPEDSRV

[2] = biological target: T1, OATP2B1; assay: Inhibition of OATP2B1-mediated estrone 3-sulfate uptake in MDCKII-OATP2B1 cells; assay type: cell-based; conditions: 0 to 316 μM

COc1ccc([C@@H]2CC(=O)c3c(O)cc(O[C@@H]4O[C@H](CO[C@@H]5O[C@@H](C)[C@H](O)[C@@H](O)[C@H]5O)[C@@H](O)[C@H](O)[C@H]4O)cc3O2)cc1O [Hesperidin, hesperidin]
IC50 [1]: 1.92 µM | inhibition at the concentrations tested [2]: no inhibition
